Measurements published in US20200330429A1, “METHOD OF TREATING TRUNCAL ACNE WITH TRIFAROTENE” (priority 2019, published 2020).

Legend:
[1] = tested on: moderate facial acne; experiment: SATisFy 52-week study, facial acne efficacy and quality of life; type: in vivo, human
Method: (§1) A multi-center, 52-week, […] group study (SATisFy) with once daily trifarotene 50 μg/g was conducted in subjects with moderate facial and truncal acne. The screening/baseline weeks were 1, 2, 4, 8, 12, 20, 26, 38 & week 52. Inclusion/exclusion criteria and assessment are as described in Example 1, unless mentioned otherwise. Additional assessments may include subject's facial acne assessment, quality of life (DLQI and CDLQI) and standard facial and trunk photography.
(§2) Efficacy • Success rate: IGA/PGA score of 2 grade in improvement and Clear (0) or Almost Clear (1) • Grade change from baseline of IGA & PGA • Subject's assessment of facial acne improvement.

[2] = hepatic microsomes; cited from earlier work
[3] = tested on: moderate facial acne; experiment: PERFECT 2, 12-week vehicle-controlled study, facial acne efficacy; type: in vivo, human
Method: (§3) A multi-center (United States, Canada, Europe and Russia), 12-week, double-blinded, and vehicle controlled group study with a 1:1 randomization pattern (once daily trifarotene 50 μg/g or vehicle cream) was conducted in subjects with moderate facial and truncal acne. Enrolled patients or caregivers received instruction about how to apply a thin layer of study drug daily at bedtime on the face and self-reachable trunk. Patients were also instructed to cleanse the skin and not to apply moisturizer one hour before or one hour after study drug application. Use of moisturizer was encouraged from the initiation of treatment. Investigators could reduce the frequency of application to alternate days for a maximum of 2 weeks in the first 4 weeks following the Baseline visit when needed to manage irritation. The patients were selected based on the following criteria.
(§4) Inclusion Criteria: • 1. Male or female patients 9 years or older. • 2. Moderate facial acne, defined as: Investigator Global Assessment (IGA) score of 3 on the face. Minimum of 20 inflammatory lesions and 25 non-inflammatory lesions on the face at Screening and Baseline • 3. Moderate truncal acne with Physician Global Assessment (PGA) score of 3 at Screening and Baseline. Minimum of 20 inflammatory lesions and 20 non-inflammatory lesions but no more than 100 non-inflammatory lesion counts on the trunk (shoulders, upper back and upper anterior chest) reachable to self-application of study drug by the subject at Screening and Baseline (optional criterion for subject between 9 and 11 years of age). • 4. Accessible treated areas of the trunk were defined for the study. The trunk anatomical region assessment was pre-defined by a size-fitted T-shirt (patent # US00D7580485, Jun. 7, 2016). This ensured consistency for study assessment areas throughout the study duration. • 5. For subjects aged 9 to 11 years, inclusion criteria regarding truncal acne were optional due to relative rarity of trunk involvement (compared with face) in this age group.
Primary Efficacy Endpoints • Success rate, defined as the percentage of subjects who achieved an IGA score on the face of 1 (Almost Clear) or 0 (Clear) and at least a 2-grade improvement from Baseline to Week 12. • Absolute and percent change (supportive efficacy endpoint) in facial inflammatory lesion count from Baseline to Week 12. • Absolute and percent change (supportive efficacy endpoint) in facial non-inflammatory lesion count from Baseline to Week 12.
Severity definitions for IGA and PGA scales [5-point scales ranging from 0 (clear) to 4 (severe)] were the same. Lesion counts were performed and IGA and PGA were assessed at Screening, Baseline, and Weeks 1, 2, 4, 8, and 12/ET visits.
Trifarotene or the vehicle were applied once daily in the evening for 12 weeks. […]

[4] = tested on: subjects with moderate facial and truncal acne; experiment: PERFECT 1 safety: local tolerability and adverse events; type: in vivo, human
Method: as §3
(§5) Safety was assessed through adverse events, vital signs and routine laboratory testing. Safety assessments included treatment emergent adverse events (TEAE5), standard laboratory safety tests at screening and last study visit including hematology, blood chemistry, and urinalysis (Barc Central Laboratory, US and Belgium), physical examination, and monitoring of vital signs. Local tolerability signs/symptoms expected with a topical retinoid were collected separately from adverse events to better characterize the tolerability profile of trifarotene cream. These included erythema, scaling, dryness, and stinging/burning scored on a 4-point scale, none=0, mild=1, moderate=2, severe=3. Subjects were specifically queried at each study visit, including Baseline, for the presence of local signs or symptoms. Signs and/or symptoms of local cutaneous irritation assessed with the tolerability scale were considered to be Adverse Events if they were severe enough to lead to permanent discontinuation of study product treatment or required use of concomitant treatment including over-the-counter products (other than moisturizers). Subjects were assessed at screening/baseline and Weeks 1, 2, 4, 8 and 12.
(§6) Trifarotene or the vehicle were applied once daily in the evening for 12 weeks. The liberal use of a non-comedogenic and hypoallergenic moisturizer and non-comedogenic sunscreen was allowed. Trifarotene or the vehicle were not to be applied to cuts, abrasions, eczematous, or sunburned skin.

[5] = tested on: keratinocytes; details: cited from earlier work
[6] = tested on: moderate facial acne; experiment: PERFECT 1, 12-week vehicle-controlled study, facial acne efficacy; type: in vivo, human
Method: as §3
as §4, with “For subjects aged 9 to 11 years, inclusion criteria regarding truncal acne were optional due to relative rarity of trunk involvement (compared with face) in this age group.” left out
(§7) Severity definitions for IGA and PGA scales [5-point scales ranging from 0 (clear) to 4 (severe)] were the same. Lesion counts were performed and IGA and PGA were assessed at Screening, Baseline, and Weeks 1, 2, 4, 8, and 12/ET visits. […]

[7] = tested on: subjects with moderate facial and truncal acne; experiment: PERFECT 1 and PERFECT 2, statements for both studies together; type: in vivo, human
Method: Enrolled patients or caregivers received instruction about how to apply a thin layer of study drug daily at bedtime on the face and self-reachable trunk. Patients were also instructed to cleanse the skin and not to apply moisturizer one hour before or one hour after study drug application. Use of moisturizer was encouraged from the initiation of treatment. […] The patients were selected based on the following criteria. […] Lesion counts were performed and IGA and PGA were assessed at Screening, Baseline, and Weeks 1, 2, 4, 8, and 12/ET visits. Safety was assessed through adverse events, vital signs and routine laboratory testing. Safety assessments included treatment emergent adverse events (TEAE5), standard laboratory safety tests at screening and last study visit including hematology, blood chemistry, and urinalysis (Barc Central Laboratory, US and Belgium), physical examination, and monitoring of vital signs. Local tolerability signs/symptoms expected with a topical retinoid were collected separately from adverse events to better characterize the tolerability profile of trifarotene cream. […] Subjects were specifically queried at each study visit, including Baseline, for the presence of local signs or symptoms. Signs and/or symptoms of local cutaneous irritation assessed with the tolerability scale were considered to be Adverse Events if they were severe enough to lead to permanent discontinuation of study product treatment or required use of concomitant treatment including over-the-counter products (other than moisturizers). […] Trifarotene or the vehicle were applied once daily in the evening for 12 weeks. The liberal use of a non-comedogenic and hypoallergenic moisturizer and non-comedogenic sunscreen was allowed. Trifarotene or the vehicle were not to be applied to cuts, abrasions, eczematous, or sunburned skin.

[8] = tested on: moderate truncal acne; experiment: PERFECT 2, 12-week vehicle-controlled study, truncal acne efficacy; type: in vivo, human
Method: as §3
(§8) Inclusion Criteria: • 1. Male or female patients 9 years or older. • 2. Moderate facial acne, defined as: Investigator Global Assessment (IGA) score of 3 on the face. Minimum of 20 inflammatory lesions and 25 non-inflammatory lesions on the face at Screening and Baseline • 3. […]
as §7

[9] = tested on: subjects with moderate facial and truncal acne; experiment: PERFECT 2 safety: local tolerability and adverse events; type: in vivo, human
Method: as §3, §5, §6

[10] = tested on: moderate truncal acne; experiment: SATisFy 52-week study, truncal acne efficacy; type: in vivo, human
Method: as §1, §2

[11] = tested on: moderate truncal acne; experiment: PERFECT 1, 12-week vehicle-controlled study, truncal acne efficacy; type: in vivo, human
Method: as §3, §8, §7

[12] = week 12, trunk population, SATisFy
[13] = week 52, trunk population, SATisFy

SMILES: CC(C)(C)c1cc(-c2cc(-c3ccc(C(=O)O)cc3)ccc2OCCO)ccc1N1CCCC1 [trifarotene, 3″-tert-Butyl-4′-(2-hydroxy-ethoxy)-4″-pyrrolidin-1-yl-[1,1′,3′,1″]terphenyl-4-carboxylic acid]
- success rates, facial acne ([1]; Wk12 (166/401)): 41.4%
- success rates, facial acne ([1]; Wk26 (201/367)): 54.8%
- success rates, facial acne ([1]; Wk52 (233/350)): 66.6%
- subjects who reported that acne had no effect on quality of life ([1]; week 52 (92/171), 22.6% at Baseline): 53.8%
- metabolism [2]: rapidly metabolized
- statistically significant superior facial IGA success rates vs vehicle, at week ([3]; PERFECT 2): 8 week
- Inflammatory Lesions Mean Absolute Change from baseline ([3]; face, Week 12, PERFECT 2): −24.2
- Non-inflammatory Lesions Mean Absolute Change from baseline ([3]; face, Week 12, PERFECT 2): −30.1
- IGA Success (%) ([3]; face, Week 12, PERFECT 2, 50 μg/g once daily): 42.3%
- Severe AEs considered related to trifarotene therapy, subjects [4]: 6 subjects
- Severe related AE: dermatitis allergic, number [4]: 1
- Severe related AE: skin irritation, number [4]: 4
- Severe related AE: sunburn, number [4]: 1
- metabolic stability [5]: metabolically stable
- statistically significant superior facial IGA success rates vs vehicle, at week ([6]; PERFECT 1): 4 week
- Inflammatory Lesions Mean Absolute Change from baseline ([6]; face, Week 12, PERFECT 1): −19.0
- IGA Success (%) ([6]; face, Week 12, PERFECT 1, 50 μg/g once daily): 29.4%
- changes in vital signs, physical exams and laboratory parameters ([7]; PERFECT 1 and PERFECT 2): no significant clinically relevant changes
- serious AEs ([7]; PERFECT 1 and PERFECT 2): no AE was serious
- success rates on the trunk statistically significant vs vehicle, starting at week ([7]; both studies): 8 week
- facial lesion count reductions, statistical differences vs vehicle apparent as early as week ([7]; face): 1-2 week
- statistically significantly superior reductions in inflammatory and non-inflammatory lesions on the trunk, starting by week ([8]; PERFECT 2): 2 week
- PGA Success (%) ([8]; trunk, Week 12, PERFECT 2): 42.6%
- Severe AEs considered related to trifarotene therapy, subjects [9]: 3 subjects
- Severe related AE: application site erosion, number [9]: 1
- Severe related AE: application site irritation, number [9]: 1
- Severe related AE: application site pain, number [9]: 1
- overall success rate in same subject for truncal acne ([10]; Wk12 (87/396)): 22.0%
- overall success rate in same subject for truncal acne ([10]; Wk20 (138/375)): 36.8%
- overall success rate in same subject for truncal acne ([10]; Wk26 (157/363)): 43.3%
- overall success rate in same subject for truncal acne ([10]; Wk38 (177/355)): 49.9%
- overall success rate in same subject for truncal acne ([10]; Wk52 (199/344)): 57.9%
- PGA success rates [10, 12]: 38.6%
- trunk IGA success rates [10, 12]: 26.6%
- success rates (IGA) [10, 13]: 65.1%
- success rates (PGA) [10, 13]: 66.9%
- statistically significantly superior reductions in inflammatory and non-inflammatory lesions on the trunk, starting by week ([11]; PERFECT 1): 4 week
- PGA Success (%) ([11]; trunk, Week 12, PERFECT 1): 35.7%
